Measurements reported in ChEMBL document CHEMBL1141167, “Antitumor activity of new substituted 3-(5-imidazo[2,1-b]thiazolylmethylene)-2-indolinones and study of their effect on the cell cycle” (2005).
“And” between values parts separate entries of the source, which are not always exact repeats. Identical values can stand only once.

How the values were obtained:
CNS cell [1] = assay: Growth inhibitory concentration dissolved in DMSO against human CNS cell line at 10E-4 M concentration; assay type: functional
Colon cell [2] = assay: Total growth inhibition of human Colon cell line at 10E-4 M concentration; assay type: functional; set-up: unit not given here
NSCLC [3] = assay: Total growth inhibition of human NSCLC cell line at 10E-4 M concentration; assay type: functional
Breast carcinoma cell [4] = assay: Total growth inhibition of human Breast cell line at 10E-4 M concentration; assay type: functional
[5] = test system: Panel NCI-60 (60 carcinoma cell lines); assay: Total growth inhibition of human MG-MID cell line at 10E-4 M concentration; assay type: functional
Ovarian carcinoma cell [6] = assay: Total growth inhibition of human Ovarian cell line at 10E-4 M concentration; assay type: functional
Leukemia cell [7] = assay: Total growth inhibition of human Leukemia cell line at 10E-4 M concentration; assay type: functional
Melanoma cell [8] = assay: Total growth inhibition of human Melanoma cell line at 10E-4 M concentration; assay type: functional
Prostate cell [9] = assay: Total growth inhibition of human Prostate cell line at 10E-4 M concentration; assay type: functional
Prostate cell [10] = assay: Growth inhibitory concentration dissolved in DMSO against human Prostate cell line at 10E-4 M concentration; assay type: functional
Ovarian carcinoma cell [11] = assay: Growth inhibitory concentration dissolved in DMSO against human Ovarian cell line at 10E-4 M concentration; assay type: functional
Melanoma cell [12] = assay: Growth inhibitory concentration dissolved in DMSO against human Melanoma cell line at 10E-4 M concentration; assay type: functional
Colon cell [13] = assay: Growth inhibitory concentration dissolved in DMSO against human Colon cell line at 10E-4 M concentration; assay type: functional
NSCLC [14] = assay: Growth inhibitory concentration dissolved in DMSO against human NSCLC cell line at 10E-4 M concentration; assay type: functional; set-up: unit not given here
Renal cell = assay: Growth inhibitory concentration dissolved in DMSO against human Renal cell line at 10E-4 M concentration; assay type: functional; set-up: unit not given here
Breast carcinoma cell [15] = assay: Growth inhibitory concentration dissolved in DMSO against human Breast cell line at 10E-4 M concentration; assay type: functional
[16] = test system: Panel NCI-60 (60 carcinoma cell lines); assay: Growth inhibitory concentration dissolved in DMSO against human MG-MID cell line at 10E-4 M concentration; assay type: functional
CNS cell [17] = assay: Cytotoxic effect dissolved in DMSO against CNS cell line at 10E-4 M concentration; assay type: functional, Homo sapiens
Colon cell [18] = assay: Cytotoxic effect dissolved in DMSO against Colon cell line at 10E-4 M concentration; assay type: functional, Homo sapiens
NSCLC [19] = assay: Cytotoxic effect dissolved in DMSO against NSCLC cell line at 10E-4 M concentration; assay type: functional, Homo sapiens
[20] = test system: Panel NCI-60 (60 carcinoma cell lines); assay: Cytotoxic effect dissolved in DMSO against MG-MID cell line at 10E-4 M concentration; assay type: functional, Homo sapiens
Leukemia cell [21] = assay: Cytotoxic effect dissolved in DMSO against Leukemia cell line at 10E-4 M concentration; assay type: functional, Homo sapiens
Melanoma cell [22] = assay: Cytotoxic effect dissolved in DMSO against Melanoma cell line at 10E-4 M concentration; assay type: functional, Homo sapiens
HT-29 [23] = assay: Percentage of Cells after administration of compound dissolved in DMSO (10e-5 M) towards colon adenocarcinoma cell line HT-29 in G2/M Phase after 24 Hours of Treatment [control = 12.8]; assay type: functional, Homo sapiens
HT-29 [24] = assay: Percentage of Cells after administration of compound dissolved in DMSO (10e-6 M) towards colon adenocarcinoma cell line HT-29 in G2/M Phase after 24 Hours of Treatment [control = 12.8]; assay type: functional, Homo sapiens
HT-29 [25] = assay: Percentage of Cells after administration of compound dissolved in DMSO (10e-7M) towards colon adenocarcinoma cell line HT-29 in G2/M Phase after 24 Hours of Treatment [control = 12.8]; assay type: functional, Homo sapiens
HT-29 [26] = assay: Percentage of Cells after administration of compound dissolved in DMSO (10e-8 M) towards colon adenocarcinoma cell line HT-29 in G2/M Phase after 24 Hours of Treatment [control = 12.8]; assay type: functional, Homo sapiens
HT-29 [27] = assay: Percentage of Cells after administration of compound dissolved in DMSO (10e-4 M) towards colon adenocarcinoma cell line HT-29 in G2/M Phase after 24 Hours of Treatment [control = 12.8]; assay type: functional, Homo sapiens

For `Cc1cn2c(/C=C3/C(=O)Nc4ccc(O)cc43)c(C)nc2s1`, the “pGI50 (-log GI50, M)” value (CNS cell [1]) was 5.41, the TGI (Colon cell [2]) was 4.35 and 4.5 and the TGI (NSCLC [3]) was 4.36. The TGI (Breast carcinoma cell [4]) was 4.66, the TGI [5] was 4.44 and the TGI (Ovarian carcinoma cell [6]) was 4.09. The TGI (Leukemia cell [7]) was 5.11, the TGI (Melanoma cell [8]) was 4.5 and the TGI (Prostate cell [9]) was 4.42. For the same molecule, the “pGI50 (negative log molar GI50)” value (Prostate cell [10]) was 5.52, the “pGI50 (negative log of GI50 in M)” value (Ovarian carcinoma cell [11]) was 5.16 and the “pGI50 (-log molar GI50)” value (Melanoma cell [12]) was 5.41. For the same molecule, the “pGI50 (negative log of molar GI50)” value (Colon cell [13]) was 5.78, the GI50 (NSCLC [14]) was 5.4 and the GI50 (Renal cell) was 5.3. The “pGI50 (-log GI50, M)” value (Breast carcinoma cell [15]) was 5.56, the GI50 [16] was 5.48 and the LC50 (CNS cell [17]) was 4.02. It also gave an LC50 (Colon cell [18]) of 4.03, an LC50 (NSCLC [19]) of 4.02 and an LC50 [20] of 4.05. The LC50 (Leukemia cell [21]) was 4.47, the LC50 (Melanoma cell [22]) was 4.08 and the Activity (HT-29 [23]) was 72.7%. It also gave an Activity (HT-29 [24]) of 13.4%, an Activity (HT-29 [25]) of 13.6% and an Activity (HT-29 [26]) of 12.2%. It also gave an Activity (HT-29 [27]) of 75.2%.
